Among the test systems are NCI-H460 lung; COLO 205 colon; SNB-19 CNS; ACHN renal; A549 NSCLC; RPMI-8226 leukemia; U251 CNS; KM12 colon; SR leukemia; NCI-H226 lung; NCI/ADR-RES ovarian; LOX IMVI melanoma; BT-549 breast; SW-620 colon; MDA-MB-435; 786-0 renal; A498 renal; CCRF-CEM leukemia; NCI-H23 lung; HCT-116 colon.
Common to all, as to experiment: NCI tumour cell line growth inhibition, 48 h

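Five compound concentrations were applied to cells in 96-well plates for 48 hours; endpoints were derived by simple linear interpolation of the resulting dose-response curve. TGI marks complete inhibition of growth.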

As to `O=C(NC1CCN(Cc2ccccc2)CC1)c1ccccc1I`, the TGI is 67.7 µM in the assay on NCI-H460 lung; 34.8 µM with COLO 205 colon; above 100 µM in the assay with SNB-19 CNS; above 100 µM in the assay with ACHN renal; above 100 µM in the assay on A549 NSCLC; above 100 µM in the assay on RPMI-8226 leukemia. Further, the TGI with U251 CNS was 63.3 µM; with KM12 colon, 34.6 µM; with SR leukemia it was above 100 µM; in the assay on NCI-H226 lung, 72.8 µM; in the assay with NCI/ADR-RES ovarian it was 92.3 µM; in the assay with LOX IMVI melanoma, 32.6 µM. Further, the TGI in the assay on BT-549 breast is above 100 µM; in the assay on SW-620 colon, 38.9 µM; with MDA-MB-435, 32.4 µM; in the assay with 786-0 renal, 63.4 µM; with A498 renal, above 100 µM; in the assay with CCRF-CEM leukemia, 86.2 µM. In addition, the TGI with NCI-H23 lung came out at 72.1 µM; in the assay on HCT-116 colon, 31.1 µM.

Take `CCOC(=O)C(SCCO)C(C(=O)OCC)n1cc(C)c(=O)[nH]c1=O` (stereo not drawn): the TGI is above 100 µM in the assay with NCI-H460 lung; 23.3 µM in the assay on COLO 205 colon; above 100 µM with SNB-19 CNS; above 57.1 µM in the assay on ACHN renal; above 100 µM in the assay on A549 NSCLC; 44.4 µM with RPMI-8226 leukemia. The TGI is 36.5 µM with U251 CNS; above 63.1 µM in the assay with KM12 colon; 35.5 µM in the assay with SR leukemia; above 61.4 µM with NCI-H226 lung; above 86.6 µM in the assay with NCI/ADR-RES ovarian; 19.2 µM with LOX IMVI melanoma. Moreover, the TGI in the assay with BT-549 breast is above 85.1 µM; in the assay with SW-620 colon, above 43.1 µM; with MDA-MB-435, above 56.1 µM; with 786-0 renal, 15.6 µM; with A498 renal it was 47.5 µM; with CCRF-CEM leukemia it was 8.1 µM. In addition, the values for the TGI in the assay on NCI-H23 lung and in the assay with HCT-116 colon were above 78.7 µM and 22.6 µM, respectively.

`O=C(Nc1ccc(F)cc1)c1cc2ccc(O)cc2oc1=Nc1cccc(F)c1`: the TGI in the assay with NCI-H460 lung, in the assay with COLO 205 colon, in the assay on ACHN renal, in the assay on RPMI-8226 leukemia, in the assay with U251 CNS and in the assay with KM12 colon was above 100 µM each time. Further, the TGI with SR leukemia was above 100 µM; in the assay with NCI/ADR-RES ovarian, above 100 µM; in the assay on LOX IMVI melanoma it was 52.6 µM; with BT-549 breast it was 75.4 µM; with SW-620 colon it was above 100 µM; in the assay with MDA-MB-435, above 100 µM. Also, the TGI in the assay with 786-0 renal was above 100 µM; in the assay with A498 renal, above 100 µM; in the assay with CCRF-CEM leukemia, 71.8 µM; in the assay with NCI-H23 lung it was 55.7 µM; in the assay on HCT-116 colon it was above 100 µM.

As to `Clc1ccc(-c2cc(-c3nc4ccccc4[nH]3)no2)cc1`, the TGI stood at 32.6 µM in the assay with NCI-H460 lung; 41.8 µM in the assay with COLO 205 colon; 36 µM with SNB-19 CNS; 36.9 µM in the assay on ACHN renal; 36 µM in the assay with A549 NSCLC; 73.1 µM in the assay on RPMI-8226 leukemia. Also, the TGI in the assay with KM12 colon is 40 µM; in the assay on SR leukemia, 59.7 µM; in the assay with NCI-H226 lung it was 79.9 µM; with NCI/ADR-RES ovarian, 73.5 µM; in the assay on LOX IMVI melanoma, 35.5 µM; with BT-549 breast, 45.5 µM. Besides, the TGI in the assay on SW-620 colon worked out at 46.5 µM; in the assay on MDA-MB-435, 31.6 µM; in the assay on 786-0 renal it was 59 µM; in the assay with A498 renal, 47.5 µM; in the assay with CCRF-CEM leukemia, 57.4 µM; in the assay with NCI-H23 lung it was 42.3 µM. Also, the TGI with HCT-116 colon worked out at 30.6 µM.

Take `COc1ccc(N2C(=O)CC(c3c[nH]c4ccccc34)C2=O)cc1` (stereo not drawn): the TGI in the assay on NCI-H460 lung, with COLO 205 colon, with SNB-19 CNS, in the assay on ACHN renal, with A549 NSCLC and with RPMI-8226 leukemia was above 100 µM throughout. Further, the TGI in the assay with U251 CNS, in the assay on SR leukemia, in the assay on NCI-H226 lung, in the assay on NCI/ADR-RES ovarian, in the assay with LOX IMVI melanoma and in the assay with BT-549 breast was above 100 µM throughout. In addition, the TGI in the assay on SW-620 colon, in the assay with MDA-MB-435, in the assay with 786-0 renal, with A498 renal, with CCRF-CEM leukemia and in the assay on NCI-H23 lung was above 100 µM each time. Besides, the TGI in the assay with HCT-116 colon is above 100 µM.

As for `N=C(N)c1ccc(-c2ccc(-c3ccc(C(=N)N)cc3)o2)cc1`, the TGI with NCI-H460 lung is 40 µM; in the assay with COLO 205 colon it was 43.2 µM; in the assay on SNB-19 CNS it was above 100 µM; in the assay with ACHN renal, above 100 µM; with A549 NSCLC, above 100 µM; in the assay with RPMI-8226 leukemia, above 100 µM. Also, the TGI with U251 CNS was 34.7 µM; in the assay on KM12 colon it was above 100 µM; in the assay on SR leukemia it was above 100 µM; with NCI-H226 lung, above 100 µM; in the assay on NCI/ADR-RES ovarian it was above 100 µM; in the assay on BT-549 breast it was above 100 µM. Further, the TGI in the assay on SW-620 colon was above 100 µM; with MDA-MB-435, above 100 µM; with 786-0 renal, 59.7 µM; in the assay on A498 renal it was above 100 µM; in the assay with CCRF-CEM leukemia, above 100 µM; in the assay with NCI-H23 lung, 87 µM. This compound returned a TGI in the assay with HCT-116 colon above 100 µM.

On to `O=C(O)C1CCCN1Cc1ccc2c(c1)OCO2` (stereo not drawn), for which the TGI in the assay with NCI-H460 lung, in the assay on COLO 205 colon, in the assay on SNB-19 CNS, in the assay with ACHN renal, with A549 NSCLC and in the assay with RPMI-8226 leukemia was above 100 µM each time. Also, the TGI with U251 CNS, in the assay on KM12 colon, in the assay on SR leukemia, in the assay on NCI-H226 lung, with NCI/ADR-RES ovarian and with LOX IMVI melanoma was above 100 µM each time. Further, the TGI with BT-549 breast, with SW-620 colon, in the assay on MDA-MB-435, in the assay with 786-0 renal, in the assay with A498 renal and in the assay with NCI-H23 lung was above 100 µM throughout. Moreover, the TGI with HCT-116 colon was above 100 µM.

The values above are taken from PubChem BioAssay (NCI).
